Experimental data: patent US7153869B2, “Substituted amino acids as erythropoietin mimetics” (priority 1998, dated 2006)
Where two headings read alike, the source gives them in different places.

Molecular target: T1, EBP-Ig (N-terminal 225 amino acids of the human EPO receptor joined to an Ig heavy chain) (Homo sapiens, UniProt P19235)
T1 construct: Ig heavy chain (fusion partner); made in house; host or cells: NSO cells (secreted into conditioned media)
T1 sequence (P19235 25-250 limits assumed): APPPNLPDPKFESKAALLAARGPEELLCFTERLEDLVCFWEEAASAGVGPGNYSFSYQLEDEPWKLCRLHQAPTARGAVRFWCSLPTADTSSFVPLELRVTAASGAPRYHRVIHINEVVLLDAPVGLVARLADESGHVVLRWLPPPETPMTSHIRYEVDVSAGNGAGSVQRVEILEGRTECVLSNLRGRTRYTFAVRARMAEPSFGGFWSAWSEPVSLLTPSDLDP
Experiment: Inhibition of [125I]EPO binding to immobilized EBP-Ig (EPO binding protein-Ig), scintillation Flash plate competition assay
Details: for IC30 μM (Inhibition of EPO binding to EBP-Ig) / % inh @ 50 μM (Inhibition of EPO binding to EBP-Ig) / IC50: 0.5 nM [125I]EPO; for IC30 μM (Inhibition of EPO binding to EBP-Ig): 0–500 μM test compound; for % inh @ 50 μM (Inhibition of EPO binding to EBP-Ig): 50 μM test compound, average % inhibition; for IC50: read-out: IC50, μM (Inhibition of EPO binding to EBP-Ig), concentration reducing corrected total binding to 50%
Source text: The interaction of biotin and streptavidin is frequently employed to capture and effectively immobilize reagents useful in assay protocols and has been employed here as a simple method to capture and immobilize EBP-Ig. EBP-Ig is initially randomly modified with an amine reactive derivative of biotin to produce biotinylated-EBP-Ig. Use of streptavidin coated plates allows the capture of the biotinylated EBP-Ig on the surface of a scintillant impregnated coated well (Flash plates, NEN-DuPont). […] The amount of light produced was quantified to estimate the amount of ligand binding. The specific assay format was suitable for the multi-well plate capacity of a Packard TopCount Microplate Scintillation counter.
Biotinylated EBP-Ig was prepared as follows. EBP-Ig (3 mL, OD280 2.9) was exchanged into 50 mM sodium bicarbonate, pH 8.5 using a Centriprep 10 ultrafiltration device. The final volume of the exchanged protein was 1.2 mL (OD280 2.6, representing about 2 mg total protein). 10 μL of a 4 mg/ml solution of NHS-LC-Biotin (Pierce) was added and the reaction mixture placed on ice in the dark for two hours. Unreacted biotin was removed by exchange of the reaction buffer into PBS in a Centriprep 10 device and the protein reagent aliquoted and stored at −70° C.
All wells were adjusted to a final DMSO concentration of 5%. […] After all additions were made, the plate was covered with an adhesive top seal and placed in the dark at room temperature overnight. The next day all liquid was aspirated from the wells to limit analyte dependent quench of the signal, and the plates were counted on a Packard TOPCOUNT Microplate Scintillation Counter. […] Corrected total binding (CTB) was calculated as: TB−NSB=CTB. […] Table 1 lists the average % inhibition, and if determined the IC50 and IC30 values for compounds of Formula I, where the compound numbers refer to the compounds in the tables accompanying the preparative examples.

[1] = read-out: % inh @ 50 μM (Inhibition of EPO binding to EBP-Ig)
[2] = read-out: EPO/EBP-Ig % inh @ 50 μM, 50 μM compound, Table 10

Structure (SMILES)	IC30 μM (Inhibition of EPO binding to EBP-Ig)	EPO/EBP-Ig % inh @ 50 μM (50 μM compound, Table 10)	% inh @ 50 μM (Inhibition of EPO binding to EBP-Ig)	IC50	inhibition at 50 µM [1]	inhibition at 50 µM [2]
COc1ccc(CCNC(=O)C(CCCCN)N(C/C=C/c2ccccc2)C/C=C/c2ccccc2)cc1OC (centres unmarked) [compound 221]	10 µM	48%	48%	80 µM		
COc1cccc(CCNC(=O)C(CCCCN)N(C/C=C/c2ccccc2)C/C=C/c2ccccc2)c1 (centres unmarked) [compound 222]	5 µM	56%	56%			
COc1ccccc1CCNC(=O)C(CCCCN)N(CC=Cc1ccccc1)CC=Cc1ccccc1 (centres unmarked) [compound 224]	25 µM			50 µM	51%	51%
COc1ccc(CCNC(=O)C(CCCCNC(=O)OC(C)(C)C)N(C/C=C/c2cccc(Oc3ccccc3)c2)C/C=C/c2cccc(Oc3ccccc3)c2)cc1 (centres unmarked) [compound 225]		10%				
NCCCCC(C(=O)NCCc1ccccc1)N(CC=Cc1ccccc1)CC=Cc1ccccc1 (centres unmarked) [compound 227]	20 µM			50 µM	48%	48%
COc1ccc(CCNC(=O)C(CCCCNC(=O)Nc2ccccc2)N(C/C=C/c2cccc(Oc3ccccc3)c2)C/C=C/c2cccc(Oc3ccccc3)c2)cc1 (centres unmarked) [compound 228]		21%				
COc1ccc(CCNC(=O)C(CCCCNC(=O)Nc2ccc(Oc3ccccc3)cc2)N(C/C=C/c2ccccc2)C/C=C/c2ccccc2)cc1 (centres unmarked) [compound 229]		22%				
COc1ccc(CCNC(=O)C(CCCCNC(=O)Nc2ccc(Cl)c(Cl)c2)N(C/C=C/c2ccccc2)C/C=C/c2ccccc2)cc1 (centres unmarked) [compound 230]		42%	42%			
CCOC(=O)c1ccc(NC(=O)NCCCCC(C(=O)NCCc2ccc(OC)cc2)N(C/C=C/c2ccccc2)C/C=C/c2ccccc2)cc1 (centres unmarked) [compound 231]		36%	36%			
COc1ccc(CCNC(=O)C(CCCCNC(=O)Nc2ccc(Oc3ccccc3)cc2)N(C/C=C/c2cccc(Oc3ccccc3)c2)C/C=C/c2cccc(Oc3ccccc3)c2)cc1 (centres unmarked) [compound 232]		14%				
COc1cccc(CCNC(=O)C(CCCCN)N(C/C=C/c2ccc([N+](=O)[O-])cc2)C/C=C/c2ccc([N+](=O)[O-])cc2)c1 (centres unmarked) [compound 233]		18%				
NCCCCC(C(=O)NCc1ccccc1)N(CC=Cc1ccccc1)CC=Cc1ccccc1 (centres unmarked) [compound 235]	20 µM			50 µM	49%	49%
COc1cccc(CCNC(=O)C(CCCCNC(=O)CCC(=O)O)N(CC=Cc2ccccc2)CC=Cc2ccccc2)c1 (centres unmarked) [compound 237]	30 µM			70 µM	55%	55%
COc1ccc(CCNC(=O)C(CCCCN)N(C/C=C/c2ccc(-c3ccccc3)cc2)C/C=C/c2ccc(-c3ccccc3)cc2)cc1 (centres unmarked) [compound 238]		39%	39%			
NCCCCC(C(=O)NCCc1ccccc1)N(C/C=C/c1cccc(Oc2ccccc2)c1)C/C=C/c1cccc(Oc2ccccc2)c1 (centres unmarked) [compound 239]	8 µM	46%	46%	50 µM		
